From US11046699B2, “Pyrazolo-pyrimidin-amino-cycloalkyl compounds and their therapeutic uses” (RAPT THERAPEUTICS, INC., priority 2018, dated 2021)

target: GCN2 (Homo sapiens, UniProt Q9P2K8); experiment: GCN2 enzymatic endpoint assay: phosphorylation of GFP-eIF2α measured by TR-FRET (Lanthascreen); assay type: biochemical; conditions: tested as described in Example 77; compound and/or hydrochloride, dihydrochloride or trifluoroacetic acid salt; read-out: IC 50 Activity
How it was run: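 2 μM ATP, 80 nM GFP-eIF2α, RT, 90 min; EDTA stop. Tb-anti-phospho antibody TR-FRET read, 520/495 nm ratio.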

GCN2, sequence (Q9P2K8 whole entry): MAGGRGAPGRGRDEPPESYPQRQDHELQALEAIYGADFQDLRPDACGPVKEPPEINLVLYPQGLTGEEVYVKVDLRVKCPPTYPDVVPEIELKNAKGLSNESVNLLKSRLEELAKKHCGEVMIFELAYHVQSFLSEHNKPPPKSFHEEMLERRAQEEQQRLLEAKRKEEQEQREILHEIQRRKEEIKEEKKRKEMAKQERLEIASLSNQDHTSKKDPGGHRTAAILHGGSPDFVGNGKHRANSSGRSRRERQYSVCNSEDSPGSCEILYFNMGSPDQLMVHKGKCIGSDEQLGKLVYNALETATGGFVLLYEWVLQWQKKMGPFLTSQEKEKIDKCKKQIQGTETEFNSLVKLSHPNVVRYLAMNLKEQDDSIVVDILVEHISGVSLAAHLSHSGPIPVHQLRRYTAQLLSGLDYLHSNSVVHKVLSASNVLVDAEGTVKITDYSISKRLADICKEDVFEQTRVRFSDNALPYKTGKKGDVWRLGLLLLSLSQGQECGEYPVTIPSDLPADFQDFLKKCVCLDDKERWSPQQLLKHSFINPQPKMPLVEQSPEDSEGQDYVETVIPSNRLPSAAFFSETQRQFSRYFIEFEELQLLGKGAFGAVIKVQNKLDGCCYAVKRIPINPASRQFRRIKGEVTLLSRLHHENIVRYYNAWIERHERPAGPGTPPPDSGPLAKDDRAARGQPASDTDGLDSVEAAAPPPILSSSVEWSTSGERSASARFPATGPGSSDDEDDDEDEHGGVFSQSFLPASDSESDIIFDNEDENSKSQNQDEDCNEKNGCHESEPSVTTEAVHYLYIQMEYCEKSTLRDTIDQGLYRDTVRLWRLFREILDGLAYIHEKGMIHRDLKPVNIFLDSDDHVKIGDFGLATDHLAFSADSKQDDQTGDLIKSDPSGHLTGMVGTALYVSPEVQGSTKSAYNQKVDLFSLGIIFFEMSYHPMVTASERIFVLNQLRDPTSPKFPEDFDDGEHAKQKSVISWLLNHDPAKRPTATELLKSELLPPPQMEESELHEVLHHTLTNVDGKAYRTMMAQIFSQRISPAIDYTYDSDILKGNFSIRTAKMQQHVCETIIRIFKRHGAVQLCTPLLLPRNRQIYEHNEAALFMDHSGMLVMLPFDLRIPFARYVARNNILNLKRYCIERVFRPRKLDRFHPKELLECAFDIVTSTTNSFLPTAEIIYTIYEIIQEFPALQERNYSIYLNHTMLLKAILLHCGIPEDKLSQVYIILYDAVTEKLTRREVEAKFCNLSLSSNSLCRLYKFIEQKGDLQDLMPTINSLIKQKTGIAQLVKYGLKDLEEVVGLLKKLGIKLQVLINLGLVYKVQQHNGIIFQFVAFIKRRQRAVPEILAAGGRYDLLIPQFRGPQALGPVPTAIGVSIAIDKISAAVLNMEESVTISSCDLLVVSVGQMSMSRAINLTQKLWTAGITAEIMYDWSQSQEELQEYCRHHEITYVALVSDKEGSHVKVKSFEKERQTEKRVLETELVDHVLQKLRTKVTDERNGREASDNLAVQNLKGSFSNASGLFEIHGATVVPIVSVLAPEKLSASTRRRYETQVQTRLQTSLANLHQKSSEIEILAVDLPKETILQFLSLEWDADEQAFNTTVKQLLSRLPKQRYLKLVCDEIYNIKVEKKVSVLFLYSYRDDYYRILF

Compound | IC50
CNC(=O)[C@]1(C)CC[C@@H](Nc2ncc3c(Br)nn(-c4ccc(-c5cnc(C)o5)cc4)c3n2)C1 [(1R,3R)-3-[[3-bromo-1-[4-(2-methyloxazol-5-yl)phenyl]pyrazolo[3,4-d]pyrimidin-6-yl]amino]-N,1-dimethyl-cyclopentane-carboxamide] | 25 to 200 nM
C[C@H](N)c1cc(Cl)cc(-n2nc(Br)c3cnc(N[C@@H]4CC[C@@](C)(C(=O)N5CCP(C)(=O)CC5)C4)nc32)c1 | 25 to 200 nM
C[C@@]1(C(=O)NCCO)CC[C@@H](Nc2ncc3c(Br)nn(-c4cc(F)c5ncccc5c4)c3n2)C1 [(1R,3R)-3-[[3-bromo-1-(8-fluoro-6-quinolyl)pyrazolo[3,4-d]pyrimidin-6-yl]amino]-N-(2-hydroxyethyl)-1-methyl-cyclopentane-carboxamide] | < 25 nM
Fc1cc(-n2nc(Br)c3cnc(NC4CCOC4)nc32)cc2cccnc12 (centres unmarked) [3-bromo-1-(8-fluoro-6-quinolyl)-N-tetrahydrofuran-3-yl-pyrazolo[3,4-d] pyrimidin-6-amine] | 25 to 200 nM
CC1(C(=O)NC2CCOCC2)CC(Nc2ncc3c(Br)nn(-c4ccc5ncccc5c4)c3n2)C1 (centres unmarked) | 25 to 200 nM
CNC(=O)[C@]1(C)CC[C@@H](Nc2ncc3c(Br)nn(-c4cc(Cl)cc(C#N)c4)c3n2)C1 [(1R,3R)-3-[[3-bromo-1-(3-chloro-5-cyano-phenyl)pyrazolo[3,4-d]pyrimidin-6-yl]amino]-N,1-dimethyl-cyclopentanecarboxamide] | 25 to 200 nM
C[C@]1(C(=O)NCCO)CC[C@@H](Nc2ncc3c(Br)nn(-c4cc(F)c5ncccc5c4)c3n2)C1 [(1S,3R)-3-[[3-bromo-1-(8-fluoro-6-quinolyl)pyrazolo[3,4-d]pyrimidin-6-yl]amino]-N-(2-hydroxyethyl)-1-methyl-cyclopentane-carboxamide] | 25 to 200 nM
O=C1CN(C(=O)[C@@H]2CC[C@@H](Nc3ncc4c(Br)nn(-c5cc(F)c6ncccc6c5)c4n3)C2)CC(=O)N1 [4-((1R,3R)-3-((3-bromo-1-(8-fluoroquinolin-6-yl)-1H-pyrazolo[3,4-d]pyrimidin-6-yl)amino)cyclopentane-1-carbonyl)piperazine-2,6-dione] | < 25 nM
CNC(=O)[C@]1(CCOC)CC[C@@H](Nc2ncc3c(Br)nn(-c4ccc(-c5nnc(C)s5)c(CCC#N)c4)c3n2)C1 [(1R,3R)-3-[[3-bromo-1-[3-(2-cyano-ethyl)-4-(5-methyl-1,3,4-thiadiazol-2-yl)phenyl]pyrazolo[3,4-d]pyrimidin-6-yl]amino]-1-(2-methoxyethyl)-N-methyl-cyclopentanecarboxamide; 2,2,2-trifluoroacetic acid] | 25 to 200 nM
CNC(=O)[C@]1(C)CC[C@@H](Nc2ncc3c(Br)nn(-c4ccc(-c5nnc(COC)o5)cc4)c3n2)C1 [(1R,3R)-3-[[3-bromo-1-[4-[5-(methoxy-methyl)-1,3,4-oxadiazol-2-yl]phenyl]pyrazolo [3,4-d]pyrimidin-6-yl]amino]-N,1-dimethyl-cyclopentanecarboxamide] | 25 to 200 nM
Cc1nnc(-c2ccc(-n3nc(Br)c4cnc(N[C@@H]5CC[C@@H](C(=O)N6CCN(C)C(=O)C6)C5)nc43)cc2)o1 [4-((1R,3R)-3-((3-bromo-1-(4-(5-methyl-1,3,4-oxadiazol-2-yl)phenyl)-1H-pyrazolo[3,4-d]pyrimidin-6-yl)amino)cyclopentane-1-carbonyl)-1-methylpiperazin-2-one] | 25 to 200 nM
N#Cc1cc(-n2nc(Br)c3cnc(N[C@@H]4CC[C@@H](C(=O)N5CCC5)C4)nc32)cc2cccnc12 [6-(6-(((1R,3R)-3-(azetidine-1-carbonyl)cyclopentyl)amino)-3-bromo-1H-pyrazolo [3,4-d]pyrimidin-1-yl)quinoline-8-carbonitrile] | 25 to 200 nM
CNC(=O)[C@]1(C)CC[C@@H](Nc2ncc3c(Br)nn(-c4ccc(-c5cncn5C)cc4)c3n2)C1 [(1R,3R)-3-[[3-bromo-1-[4-(3-methylimidazol-4-yl)phenyl]pyrazolo[3,4-d]pyrimidin-6-yl]amino]-N,1-dimethyl-cyclopentane-carboxamide] | 25 to 200 nM
O=C(NCCN1CCOCC1)[C@@H]1CC[C@@H](Nc2ncc3c(Br)nn(-c4ccc5ncccc5c4)c3n2)C1 [(1R,3R)-3-((3-bromo-1-(quinolin-6-yl)-1H-pyrazolo[3,4-d]pyrimidin-6-yl)amino)-N-(2-morpholinoethyl)cyclopentane-1-carboxamide] | 25 to 200 nM
O=C(NCCN1CCNC1=O)[C@@H]1CC[C@@H](Nc2ncc3c(Br)nn(-c4cc(F)c5ncccc5c4)c3n2)C1 [(1R,3R)-3-((3-bromo-1-(8-fluoroquinolin-6-yl)-1H-pyrazolo[3,4-d]pyrimidin-6-yl)amino)-N-(2-(2-oxoimidazolidin-1-yl)ethyl)cyclo-pentane-1-carboxamide] | 25 to 200 nM
CNC(=O)[C@@]1(C)CC[C@@H](Nc2ncc3c(Br)nn(-c4cc(C#N)c5ncccc5c4)c3n2)C1 [(1S,3R)-3-((3-bromo-1-(8-cyanoquinolin-6-yl)-1H-pyrazolo[3,4-d]pyrimidin-6-yl)amino)-N,1-dimethylcyclopentane-1-carboxamide] | 25 to 200 nM
C[C@@H]1C(=O)N(C)CCN1C(=O)[C@@H]1CC[C@@H](Nc2ncc3c(Br)nn(-c4cc(C#N)c5ncccc5c4)c3n2)C1 [6-[3-bromo-6-[[(1R,3R)-3-[(2R)-2,4-dimethyl-3-oxo-piperazine-1-carbonyl]cyclopentyl]amino]pyrazolo[3,4-d]pyrimidin-1-yl] quinoline-8-carbonitrile] | < 25 nM
CN1CCN(C(=O)[C@@H]2CC[C@@H](Nc3ncc4c(Br)nn(-c5ccc6ncccc6c5)c4n3)C2)CC1=O [4-((1R,3R)-3-((3-bromo-1-(quinolin-6-yl)-1H-pyrazolo[3,4-d]pyrimidin-6-yl)amino)cyclo-pentane-1-carbonyl)-1-methylpiperazin-2-one] | 25 to 200 nM
CNC(=O)C1(C)CC[C@@H](Nc2ncc3c(Br)nn(-c4cc(CO)cc(OC)c4)c3n2)C1 (mixture of isomers) | 25 to 200 nM
COCCNC(=O)[C@@H]1CC[C@@H](Nc2ncc3c(Br)nn(-c4ccc(-c5ccn[nH]5)cc4)c3n2)C1 [(1R,3R)-3-((1-(4-(1H-pyrazol-5-yl)phenyl)-3-bromo-1H-pyrazolo[3,4-d]pyrimidin-6-yl)amino)-N-(2-methoxyethyl)cyclopentane-1-carboxamide] | 200 to 500 nM
CNC(=O)[C@@H]1CC[C@@H](Nc2ncc3c(Br)nn(-c4ccc(-c5nnc(C)o5)cc4)c3n2)C1 [(1R,3R)-3-[[3-bromo-1-[4-(5-methyl-1,3,4-oxadiazol-2-yl)phenyl]pyrazolo[3,4-d]pyrimidin-6-yl]amino]-N-methyl-cyclopentanecarboxamide] | 25 to 200 nM
CNC(=O)[C@]1(C)CC[C@@H](Nc2ncc3c(Br)nn(-c4cc(C5CNC5)c5ncccc5c4)c3n2)C1 [(1R,3R)-3-[[1-[8-(azetidin-3-yl)-6-quinolyl]-3-bromo-pyrazolo[3,4-d]pyrimidin-6-yl]amino]-N,1-dimethyl-cyclopentane-carboxamide] | 25 to 200 nM
CNC(=O)[C@@]1(C)CC[C@@H](Nc2ncc3c(Br)nn(-c4cc(N5CCNCC5)c5ncccc5c4)c3n2)C1 [(1S,3R)-3-[[3-bromo-1-(8-piperazin-1-yl-6-quinolyl)pyrazolo[3,4-d]pyrimidin-6-yl]amino]-N,1-dimethyl-cyclopentane-carboxamide] | 25 to 200 nM
